Laboratory results: US8338475B2, “Anti-proliferative pharmaceutical composition” (BioCis Pharma Oy, priority 2003, dated 2012)

Columns and labels:
[1] = system: A2058 human cutaneous melanoma tumours; test: Tumour growth in SCID/SCID mice in vivo; conditions: 16-day treatment, intratumoural 30 mM cis-UCA, 1 μM CPT, pH 6.5
Method: All injection solutions were adjusted to pH 6.5. The data points have been normalised to unity tumour size at day 0. Data from five mice in each group is included (mean, SD).
The A2058 human cutaneous melanoma cells were cultured under normal cell culture conditions prior to injection into mice. Two million A2058 cells were injected s.c. into the neck of SCID/SCID mice (Charles River Laboratories, Germany). Tumours were allowed to develop for two weeks to the size of a small pearl before the treatments. The mice were divided into four groups of six animals, each containing three males and three females. Each tumour was first injected 50 μl of one of the test solutions (A: PBS; B: 30 mM cis-UCA; C: 1 μM CPT; D: 30 mM cis-UCA+1 μM CPT) three times a week (Mon-Wed-Fri). After day 7 from the beginning of injections, the injection volume was increased to 150 μl injected into three different sides of the tumour. Tumour length and width were measured with a caliper three times a week before each injection. Tumour planar area was calculated as length×width. The tumour growth inhibition efficiency I of the treatments was calculated according to Equation 1:
[formula] where Sr represents the normalised relative size of the tumour in the control group (A) or any of the treatment groups (T), and d0 to d16 are the (eight) measuring time points during the 16-day treatment period.
After 16 days from the first injection, all the animals were sacrificed with CO2, and the tumours were collected and fixed in formalin for further studies. In groups A, C, and D, one mouse was sacrificed before the end of the experiment because of poor development of the tumour (no measurable tumour at day 0). One animal in group B was sacrificed prematurely after it had severly scratched the tumour. Data from these animals were not included in the calculation of the tumour size results. All the removed animals were female mice. Immunohistochemical data was obtained also from the removed mice except from group B. The experiments were conducted under a protocol approved by the local ethics committee.

[2] = system: K562 (chronic myelogenous leukemia); test: Proliferation assay (CellTiter 96), K562 cells; assay type: cell-based, human; conditions: pH 6.5, 44 h, cis-UCA 10 mM, CPT 2 μM, 15,000 cells per 100 μl
From the text: (§1) Transformed tumour cell lines WM 266-4 and A2058 (cutaneous melanoma), HT-1080 (epithelial fibrosarcoma), HeLa (epithelial adenocarcinoma of cervix), HK293 (kidney epithelial cells) and non-transformed cell line HSF (skin fibroblast from a healthy volunteer donor) of human origin have been described earlier (Li et al. 2003). The K562 (chronic myelogenous leukemia) cells were purchased from American Type Culture Collection.
(§2) The cells were maintained in logarithmic growth phase in IMDM medium (Invitrogen, Paisley, UK) supplemented with 10% fetal calf serum and antibiotics in a humidified incubator at +37° C., 5% CO2. The adherent cells lines were harvested for experiments with 0.25% trypsin-EDTA in PBS for 5 min and then resuspended and washed in medium. After counting of viable cells, 15,000 to 75,000 cells were transferred into flat-bottom 96-well cell culture plates in a volume of 100 or 150 μl.
The proliferation activity of cultured cell lines was quantified in flat-bottom 96-well plates with a modified colorimetric assay based on a tetrazolium derivative (CellTiter 96 Aqueous One Solution Cell Proliferation Assay, Promega). The cells were cultured in the presence of camptothecin and/or cis-UCA for 20 to 92 h, then the proliferation reagent was added for 2 h, and the absorbance at 490 nm was measured in a plate reader. […]

[3] = system: WM 266-4 (cutaneous melanoma); test: Proliferation assay (CellTiter 96), WM266-4 cells; assay type: cell-based, human
Method: The cells were cultured in triplicate with or without 2 μM camptothecin (CPT) or 10 mM cis-UCA in a density of 15,000 cells per […]. A, Cells taken from normal pH 7.4 cultures to test conditions at pH 6.5. B, Cells cultured in low pH 6.7 adaptation medium for 3 d, then tested at pH 6.5. C, Cells cultured and tested at pH 7.4.
as §1, §2
The proliferation activity of cultured cell lines was quantified in flat-bottom 96-well plates with a modified colorimetric assay based on a tetrazolium derivative (CellTiter 96 Aqueous One Solution Cell Proliferation Assay, Promega). The cells were cultured in the presence of camptothecin and/or cis-UCA for 20 to 92 h, then the proliferation reagent was added for 2 h, and the absorbance at 490 nm was measured in a plate reader. Blank absorption values in wells containing medium without cells were subtracted before comparison analysis.
The cell lines were tested in a 44-h culture at pH 6.5 with or without 2 μM camptothecin and 10 mM cis-UCA at 15,000 cells per 100 μl total volume. […] In order to further characterise the effective anti-proliferative concentration range of cis-UCA, proliferation was measured in a 44-h assay at pH 6.5 with cis-UCA concentration ranging from 30 μM to 30 mM.

Structure (SMILES): O=C(O)/C=C\c1c[nH]cn1 [cis-UCA, cis-urocanic acid]
- Growth suppression, female ([1]; female mice): 72.0%
- Growth suppression, male ([1]; male mice): 55.9%
- Inhibition of proliferation (mean percentage inhibition ± SD compared with untreated control) [2]: 26 ± 2.9%
- percentage inhibition of proliferation ([3]; 10 mM cis-UCA alone, cells from pH 7.4 cultures tested at pH 6.5, 92 h (FIG. 2A)): 36%
- percentage inhibition of proliferation ([3]; 10 mM cis-UCA, cells adapted to pH 6.7 for 3 days, tested at pH 6.5, 92 h (FIG. 2B)): 28%
- Inhibition of proliferation (mean percentage inhibition ± SD compared with untreated control) ([3]; pH 6.5, 44 h, cis-UCA 10 mM, CPT 2 μM, 15,000 cells per 100 μl): 20 ± 0.6%
